Measured values published in ChEMBL document CHEMBL1201862, “PubChem BioAssay data set” (2004).
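Protocol summary: plate cells (96-well), add compound at 5 concentrations, incubate 48 h, interpolate endpoints linearly. GI50 is the concentration that inhibits growth by half.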 Activity calls are given as the source filed them. No stated cut-off is given here; in the data, active = GI50 up to about 1.1 µM and inactive = higher.

Tests used:
Experiment in all cases: DTP human tumour cell line panel, 48 h
[1] = tested on: 786-0
[2] = tested on: A498
[3] = tested on: CCRF-CEM
[4] = tested on: EKVX
[5] = tested on: HCC 2998
[6] = tested on: HL-60
[7] = tested on: HOP-92
[8] = tested on: M14
[9] = tested on: MOLT-4
[10] = tested on: NCI-H226
[11] = tested on: NCI/ADR-RES
[12] = tested on: OVCAR-4
[13] = tested on: RPMI-8226
[14] = tested on: SF-539
[15] = tested on: SK-MEL-2
[16] = tested on: SK-OV-3
[17] = tested on: SNB-75
[18] = tested on: SW-620
[19] = tested on: TK-10
[20] = tested on: UACC-62

Row | SMILES | GI50 [1] | GI50 [2] | GI50 [3] | GI50 [4] | GI50 [5] | GI50 [6] | GI50 [7] | GI50 [8] | GI50 [9] | GI50 [10] | GI50 [11] | GI50 [12] | GI50 [13] | GI50 [14] | GI50 [15] | GI50 [16] | GI50 [17] | GI50 [18] | GI50 [19] | GI50 [20]
1 | Nc1ccc2c(c1)N(C(=O)c1cc3cc(NC(=O)c4cc5ccccc5o4)ccc3[nH]1)CC2CCl (stereo not given) | 0.0638 µM (active) | 0.16 µM (active) | 0.0405 µM (active) | 0.262 µM (active) | 0.0724 µM (active) | 0.0416 µM (active) | 0.168 µM (active) | 0.12 µM (active) | 0.045 µM (active) | 0.13 µM (active) | 0.0332 µM (active) | 0.0605 µM (active) | 0.0284 µM (active) | 0.0191 µM (active) | 0.0755 µM (active) | 0.128 µM (active) | 0.153 µM (active) | 0.0973 µM (active) | 0.283 µM (active) | 0.112 µM (active)
2 | C=C1C(=O)O[C@@H]2/C=C(/C)[C@@H](OC(C)=O)C/C=C(\C)C(O)[C@@H](OC(=O)/C(C)=C\C)C12 (stereo not given in full) | 15.1 µM (inactive) | 51.3 µM (inactive) | 9.53 µM (inactive) | 32.1 µM (inactive) | 24.6 µM (inactive) | 14.8 µM (inactive) | 22.1 µM (inactive) | 33.1 µM (inactive) | 21.1 µM (inactive) | > 100 µM (inactive) | 32.7 µM (inactive) | 41.6 µM (inactive) | 21.6 µM (inactive) | 34.4 µM (inactive) | 27.6 µM (inactive) | > 100 µM (inactive) | 79.8 µM (inactive) | 16.5 µM (inactive) | 68.7 µM (inactive) | 26.4 µM (inactive)
3 | CCOC(=O)CC[C@H](N)C(=O)N[C@@H](Cc1ccc(N(CCCl)CCCl)cc1)C(=O)OCC | 0.685 µM (active) | 17.7 µM (inactive) | < 0.0308 µM (active) | 2.3 µM (inactive) | 1.25 µM (inactive) | 0.0705 µM (active) | 0.475 µM (active) | 0.261 µM (active) | 0.0345 µM (active) | 11.1 µM (inactive) | 1.52 µM (inactive) | 0.565 µM (active) | 2.54 µM (inactive) | 0.706 µM (active) | 2.69 µM (inactive) | 1.48 µM (inactive) | 1.22 µM (inactive) | 0.977 µM (active) | 1.47 µM (inactive) | 0.256 µM (active)
4 | COc1cc(C(c2ccc3c(c2)OCO3)N2C(=O)CCC2C(=O)O)cc(OC)c1OC (stereo not given) | > 100 µM (inactive) | > 100 µM (inactive) | > 100 µM (inactive) | > 100 µM (inactive) | > 100 µM (inactive) | > 100 µM (inactive) | > 100 µM (inactive) | > 100 µM (inactive) | > 100 µM (inactive) | > 100 µM (inactive) | > 100 µM (inactive) | > 100 µM (inactive) | > 100 µM (inactive) | > 100 µM (inactive) | > 100 µM (inactive) | > 100 µM (inactive) | > 100 µM (inactive) | > 100 µM (inactive) | > 100 µM (inactive) | > 100 µM (inactive)
5 | COC(=O)C(=O)C(C(=O)OC)C(=O)C(=O)Nc1ccccc1C(N)=O (stereo not given) | > 100 µM (inactive) | > 100 µM (inactive) | > 100 µM (inactive) | > 100 µM (inactive) | > 100 µM (inactive) | > 100 µM (inactive) | > 100 µM (inactive) | > 100 µM (inactive) | > 100 µM (inactive) | > 100 µM (inactive) | > 100 µM (inactive) | 66.5 µM (inactive) | > 100 µM (inactive) | > 100 µM (inactive) | > 100 µM (inactive) | > 100 µM (inactive) | > 100 µM (inactive) | > 100 µM (inactive) | > 100 µM (inactive) | > 100 µM (inactive)
6 | Cc1nc2sc(C(=O)c3ccc(Cl)cc3)c(N)c2c(-c2ccccc2Cl)c1C(=O)Nc1ccccc1 | 10 µM (inactive) | 21.3 µM (inactive) | 3.77 µM (inactive) | 21.9 µM (inactive) | 23.6 µM (inactive) | 11.2 µM (inactive) | 3.08 µM (inactive) | 9.71 µM (inactive) | 14 µM (inactive) | 17.7 µM (inactive) | 19.5 µM (inactive) | 16.5 µM (inactive) | 23.3 µM (inactive) | 14.7 µM (inactive) | 3.08 µM (inactive) | 14.4 µM (inactive) | 11.4 µM (inactive) | 6.22 µM (inactive) | 6.76 µM (inactive) | 13.6 µM (inactive)
7 | Cc1ccc(-c2n[nH]c(=O)n2N)cc1 | > 100 µM (inactive) | > 100 µM (inactive) | > 100 µM (inactive) | > 100 µM (inactive) | > 100 µM (inactive) | > 100 µM (inactive) | > 100 µM (inactive) | > 100 µM (inactive) | > 100 µM (inactive) | > 100 µM (inactive) | > 100 µM (inactive) | > 100 µM (inactive) | > 100 µM (inactive) | > 100 µM (inactive) | > 100 µM (inactive) | > 100 µM (inactive) | 48 µM (inactive) | > 100 µM (inactive) | > 100 µM (inactive) | > 100 µM (inactive)
8 | Cc1ccc2c(c1)CN(C(=O)CCC(=O)OCc1ccccc1)c1ccc(C)cc1CN2C(=O)CCC(=O)OCc1ccccc1 | > 90.8 µM (inactive) | > 100 µM (inactive) | > 100 µM (inactive) | > 100 µM (inactive) | > 100 µM (inactive) | > 100 µM (inactive) | 82.2 µM (inactive) | > 100 µM (inactive) | > 100 µM (inactive) | > 100 µM (inactive) | > 100 µM (inactive) | > 100 µM (inactive) | > 100 µM (inactive) | 88.3 µM (inactive) | > 100 µM (inactive) | > 100 µM (inactive) | 26.6 µM (inactive) | > 100 µM (inactive) | > 100 µM (inactive) | > 100 µM (inactive)
